Laboratory results reported in patent publication US20160207969A1, “CLOSTRIDIUM DIFFICILE TARGETING MOIETIES AND CONSTRUCTS COMPRISING SAID MOIETIES” (C3 Jian, Inc., priority 2014, published 2016).
Ends that are not written are not given here.

Columns and labels:
[1] = tested on: C. difficile; assay: MIC of antimicrobial peptides (Table 3); assay type: cell-based; conditions: unit not given
[2] = tested on: C. difficile isolate CD43255 (ATCC 43255); conditions: ATCC 43255, 24 h
[3] = tested on: C. difficile isolate 1803; conditions: Clostridium difficile, 15 min
[4] = tested on: C. difficile isolate CD1803 (ATCC BAA-1803); conditions: ATCC BAA-1803, 24 h
[5] = tested on: L. casei; conditions: 24 h
[6] = tested on: B. fragilis; conditions: 24 h
[7] = tested on: C. difficile isolate CD1382 (ATCC 630, strain 1382); conditions: ATCC 630, 24 h
[8] = tested on: C. difficile isolate CD43601 (ATCC 43601, non-toxigenic); conditions: ATCC 43601, 24 h
[9] = tested on: B. fragilis; assay: Peptide killing kinetics (CFU plating, co-culture); assay type: cell-based; conditions: for activity on un-targeted organism B. fragilis compared to the levels seen on C. difficile isolate 1803: killing kinetics; for surviving B. fragilis: through 2 hours of STAMP exposure
[10] = tested on: C. difficile isolate CD1875 (ATCC BAA-1875); conditions: ATCC BAA-1875, 24 h
[11] = tested on: Trubrum; assay: MIC of antimicrobial peptides (Table 3); assay type: cell-based

Row | Substance | Organism MIC [1] | MIC values [2] | viable C. difficile recovered [3] | MIC values [4] | MIC values [5] | MIC values [6] | MIC values [7] | MIC values [8] | activity on un-targeted organism B. fragilis compared to the levels seen on C. difficile isolate 1803 [9] | surviving B. fragilis [9] | MIC values [10] | Organism MIC [11]
1 | FELVDWLETNLGKILKSKSA (Antimicrobial peptide) [PF-522] | C. difficile, 25 |  |  |  |  |  |  |  |  |  |  | 
2 | GNFYRLFKDILKGGGKNLRIIRKGIHIIKKY-NH2 (C-terminus assumed) [CD8040_G2_3G] |  | 31.3 µg/mL | < 90% | 15.6 µg/mL | >250 µg/mL | 62.5 µg/mL | 15.6 µg/mL | 31.3 µg/mL | less active | did not significantly decrease | 62.5 µg/mL | 
3 | GSVIKKRRKRMAKKKHRKLLKKTRIQRRRAGK [PF-527] |  |  |  |  |  |  |  |  |  |  |  | Trubrum, 25 μM
4 | LATKLKYEKEHKKMGGGGFLKFLKKFFKKLKYY-NH2 [CD0126 + AF5_4G] |  | 15.6 µg/mL | < 90% | 31.3 µg/mL | >250 µg/mL | >250 µg/mL | 15.6 µg/mL | 7.8 µg/mL | less active | did not significantly decrease | 15.6 µg/mL | 
5 | LATKLKYEKEHKKMGKIFGAIWPLALGALKNLIK-NH2 [CD0126 + Lys_A1_1G] |  | 15.6 µg/mL | < 90% | 7.8 µg/mL | >250 µg/mL | >250 µg/mL | 7.8 µg/mL | 15.6 µg/mL |  |  | 15.6 µg/mL | 
6 | LATLKKYLKEHKKMGKIFGAIWPLALGALKNLIK-NH2 [CD0126 + Lys_A1_M3] |  | 7.8 µg/mL |  | 7.8 µg/mL | >250 µg/mL | >250 µg/mL | 3.9 µg/mL | 7.8 µg/mL |  |  | 7.8 µg/mL | 
7 | LSLATFAKIFMTRSNWSLKRFNRL (Antimicrobial peptide) [PF-278] |  |  |  |  |  |  |  |  |  |  |  | Trubrum, 50 μM
8 | MIRIRSPTKKKLNRNSISDWKSNTSGRFFY (Antimicrobial peptide) [PF-283] |  |  |  |  |  |  |  |  |  |  |  | Trubrum, 50 μM
9 | MKRRRCNWCGKLFYLEEKSKEAYCCKECRKKAKKVKK (Antimicrobial peptide) [PF-307] |  |  |  |  |  |  |  |  |  |  |  | Trubrum, 50 μM
10 | MRFGSLALVAYDSAIKHSWPRPSSVRRLRM (Antimicrobial peptide) [PF-672] |  |  |  |  |  |  |  |  |  |  |  | Trubrum, 0.78 μM
11 | NILRVLKQVWKGGGKNLRIIRKGIHIIKKY-NH2 (C-terminus assumed) [CD9232_G2_3G] |  | 7.8 µg/mL | < 90% | 7.8 µg/mL | 125 µg/mL | 15.6 µg/mL | 3.9 µg/mL | 7.8 µg/mL | less active | did not significantly decrease | 31.3 µg/mL | 
12 | VLPFPAIPLSRRRACVAAPRPRSRQRAS (Antimicrobial peptide) [PF-168] |  |  |  |  |  |  |  |  |  |  |  | Trubrum, 50 μM
13 | VPAKLLRVIDEIPGGFLKFLKKFFKKLKY-NH2 [CD0714 + AF5_2G] |  | 31.3 µg/mL |  | 62.5 µg/mL | >250 µg/mL | >250 µg/mL | 31.3 µg/mL |  |  |  | 62.5 µg/mL | 
14 | VPAKLLRVIDEIPGGKIFGAIWPLALGALKNLIK-NH2 [CD0714 + Lys_A1_2G] |  | 62.5 µg/mL |  | 125 µg/mL | >250 µg/mL | >250 µg/mL | 31.3 µg/mL | 15.6 µg/mL |  |  | 31.3 µg/mL | 
15 | VPAKLLRVIDEIPKLFKFLRKHLL-NH2 [CD0714 + BD2-21_NG] |  | 7.8 µg/mL |  | 15.6 µg/mL | 125 µg/mL | >250 µg/mL | 7.8 µg/mL | 3.9 µg/mL |  |  | 15.6 µg/mL | 
16 | VPAKLLRVIKEIPGGFLKFLKKFFKKLK-NH2 [CD0714 + AF5_2G_M7] |  | 3.9 µg/mL |  | 3.9 µg/mL | >250 µg/mL | >250 µg/mL | 7.8 µg/mL | 7.8 µg/mL |  |  | 15.6 µg/mL | 
17 | VPAKLLRVIKKIPGGFLKFLKKFFKKLK-NH2 [CD0714 + AF5_2G_M4] |  | 7.8 µg/mL |  | 7.8 µg/mL | 125 µg/mL | 62.5 µg/mL | 3.9 µg/mL | 3.9 µg/mL |  |  | 15.6 µg/mL | 
18 | WSRVPGHSDTGWKVWHRW (Antimicrobial peptide) [PF-547] |  |  |  |  |  |  |  |  |  |  |  | Trubrum, 25 μM
